Reference: ChEMBL document CHEMBL1124100, “Structure-activity profile of a series of novel triazoloquinazoline adenosine antagonists” (J Med Chem, 1988)
pIC50: −log10 of the molar value.

What was measured:
[1] = target: T1, Adenosine receptor A1 (Rattus norvegicus, UniProt P25099); assay: Inhibition of binding towards adenosine A1 receptor using [3H]N-cyclohexyladenosine ([3H]CHA) in rat whole brain membranes.; type: cell membranes
T1 sequence (P25099 whole entry): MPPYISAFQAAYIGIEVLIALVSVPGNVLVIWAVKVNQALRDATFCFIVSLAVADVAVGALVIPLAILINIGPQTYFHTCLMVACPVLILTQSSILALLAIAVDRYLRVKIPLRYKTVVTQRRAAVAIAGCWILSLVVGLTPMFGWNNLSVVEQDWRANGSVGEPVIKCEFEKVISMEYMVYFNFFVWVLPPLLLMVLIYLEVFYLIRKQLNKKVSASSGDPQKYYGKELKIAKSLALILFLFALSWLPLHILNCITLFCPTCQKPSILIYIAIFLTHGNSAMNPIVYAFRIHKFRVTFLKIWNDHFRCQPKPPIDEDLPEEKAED

[2] = target: T2, Adenosine receptor A1 (Rattus norvegicus) (UniProt P25099); assay: (§1) Ratio of Ki at A2 to Ki at A1 receptors
T2 sequence (whole entry): T1 sequence (P25099 whole entry)

[3] = target: Adenosine A2 receptor (Rattus norvegicus, UniProt P29276+P30543)
Description: Inhibition of binding to Adenosine-2 receptor using [3H]NECA in rat striatum

[4] = species on record: Cavia porcellus; assay: Inhibition of 2-chloroadenosine-induced relaxation in histamine-contracted guinea pig trachea; type: functional, organism-based
[5] = species on record: Cavia porcellus; assay: In vitro inhibition of adenylate cyclase activity of synaptoneurosomes from guinea pig cerebral cortex; type: functional
[6] = as §1

## Nc1nc2ccc(OCc3ccccc3)cc2c2nc(-c3ccco3)nn12
[1]
  pIC50: 6.84
[2]
  Ratio: 8.9
[3]
  IC50: 1290 nM
[4]
  pIC50: < 5.00

## Nc1nc2ccccc2c2nc(-c3ccco3)nn12
[5]
  pIC50: 7.40
[1]
  pIC50: 7.42
[2]
  Ratio: 0.71
[3]
  IC50: 27 nM
[4]
  pIC50: 7.00

## CC(C)(C)Nc1nc2ccc(Cl)cc2c2nc(-c3ccco3)nn12
[1]
  pIC50: < 5.00
[3]
  IC50: > 10000 nM
[4]
  pIC50: < 6.00

## CNc1nc2ccc(Cl)cc2c2nc(-c3ccco3)nn12
[1]
  pIC50: 7.05
[2]
  Ratio: 0.69
[3]
  IC50: 61 nM
[4]
  pIC50: < 6.00

## CS(=O)(=O)O.Nc1nc2ccc(Cl)cc2c2nc(-c3ccco3)nn12
[3]
  IC50: 3.3 nM
[4]
  pIC50: 8.52

## Nc1nc2ccc(Cl)cc2c2nc(-c3ccc(Br)o3)nn12
[1]
  pIC50: 5.80
[2]
  Ratio: 0.34
[3]
  IC50: 531 nM
[4]
  pIC50: < 6.00

## Nc1nc2ccc(O)cc2c2nc(-c3ccco3)nn12
[1]
  pIC50: 8.02
[2]
  Ratio: 0.58
[3]
  IC50: 5.5 nM
[4]
  pIC50: 6.00

## CS(=O)(=O)O.Nc1nc2ccc(Cl)cc2c2nc(-c3ccc[nH]3)nn12
[1]
  pIC50: 6.21
[2]
  Ratio: 2
[3]
  IC50: 1205 nM
[4]
  pIC50: < 6.00

## CS(=O)(=O)O.Nc1nc2ccc(Cl)cc2c2nc(-c3ccoc3)nn12
[5]
  pIC50: 7.10
[1]
  pIC50: 6.53
[6]
  Ratio: 0.49
[3]
  IC50: 145 nM
[4]
  pIC50: < 6.00

## Nc1nc2ccc(Cl)cc2c2nc(C3CCCO3)nn12 (stereo unspecified)
[5]
  pIC50: 6.32
[1]
  pIC50: 6.08
[2]
  Ratio: 1.9
[3]
  IC50: 1580 nM
[4]
  pIC50: < 6.00

## CS(=O)(=O)O.Nc1nc2ccc(Cl)cc2c2nc(-c3cccs3)nn12
[5]
  pIC50: 6.70
[1]
  pIC50: 6.49
[2]
  Ratio: 0.36
[3]
  IC50: 116 nM
[4]
  pIC50: < 6.00

## Cn1c(=O)c2nc[nH]c2n(C)c1=O [THEOPHYLLINE]
[5]
  pIC50: 5.00
[4]
  pIC50: 5.52

## OCCNc1nc2ccc(Cl)cc2c2nc(-c3ccco3)nn12
[1]
  pIC50: 7.68
[2]
  Ratio: 2.7
[3]
  IC50: 56 nM
[4]
  pIC50: < 6.00

## COc1ccc2nc(N)n3nc(-c4ccco4)nc3c2c1
[1]
  pIC50: 7.51
[2]
  Ratio: 0.61
[3]
  IC50: 19 nM
[4]
  pIC50: < 5.00

## CS(=O)(=O)O.Cn1c(=N)n2nc(-c3ccco3)nc2c2ccccc21
[5]
  pIC50: 5.83
[1]
  pIC50: 5.91
[2]
  Ratio: 2.4
[3]
  IC50: 2914 nM
[4]
  pIC50: < 6.00

## Oc1nc2ccc(Cl)cc2c2nc(-c3ccco3)nn12
[1]
  pIC50: 5.00
[3]
  IC50: > 10000 nM
[4]
  pIC50: < 6.00

## CN(C)c1nc2ccc(Cl)cc2c2nc(-c3ccco3)nn12
[5]
  pIC50: < 6.00
[1]
  pIC50: < 5.00
[3]
  IC50: > 10000 nM
[4]
  pIC50: < 6.00

## CCC(C)Nc1nc2ccc(Cl)cc2c2nc(-c3ccco3)nn12.CS(=O)(=O)O (stereo unspecified)
[1]
  pIC50: 7.21
[2]
  Ratio: 2.6
[3]
  IC50: 158 nM
[4]
  pIC50: < 6.00

## CC(C)Nc1nc2ccc(Cl)cc2c2nc(-c3ccco3)nn12
[5]
  pIC50: 6.40
[1]
  pIC50: 7.66
[2]
  Ratio: 8.2
[3]
  IC50: 179 nM
[4]
  pIC50: < 6.00
